# From patent US7960416B2, “Stable emulsion composition” (Takeda Pharmaceutical Company Limited, priority 2001, dated 2011)
# Tested on: NO production
# Assay: NO production-inhibiting effect in RAW264.7 cells (nitrite ion, DAN fluorescence)
# Type: cell-based, Mouse
# Settings: Mus musculus; RAW264.7 cells stimulated with LPS 5 ng/ml and interferon gamma 1 U/ml; nitrite ion in culture supernatant; Compounds 1 and 3: minimum and maximum of 7 and 9 tests; read-out: IC50 (μM), NO production inhibition
# Procedure: Mouse macrophage cell line RAW264.7 was used as an iNOS-inducible cell and a test compound was examined for its % inhibition of NO production. The test compound was dissolved at 10 mM in N,N-dimethylformamide and diluted with an RPMI-1640 medium at the concentration of 0.1 mM. The concentration was further adjusted using the medium so that a final concentration ranging from 10 μM to 10 nM could be obtained by a 10-fold serial dilution and the test compound was added to a culture medium. On the day before the experiment, the cell was adjusted at 5×10^5/ml in an RPMI-1640 medium supplemented with 10% inactivated fetal calf serum and inoculated to a 96-well microplate at 1×10^5 cells/0.2 ml per well. After incubating at 37° C. under an atmosphere of 5% CO2/95% air overnight, the test compound adjusted as described above was added and then LPS and interferon gamma were added at the final concentrations of 5 ng/ml and 1 U/ml, respectively. After further incubating overnight, culture supernatants were examined for the concentration of nitrite ion (stable metabolite of NO) which was used as an index for the NO production. The nitrite ion concentration was determined by adding 25 μl of 20 μg/ml of 2,3-diaminonaphthalene (DAN) to 50 μl of the culture supernatant, followed by incubating at room temperature for 10 minutes, followed by adding 25 μl of 0.5 N NaOH, followed by determining a fluorescence at 450 nm (excitation wavelength: 365 nm). An IC50 represents the concentration of the test compound which inhibits 50% of the NO production.
row,Compound,IC50 [µM]
1,"CCOC(=O)C1=CCCCC1S(=O)(=O)Nc1ccc([N+](=O)[O-])cc1 (stereo not drawn) [Compound 5, ethyl 6-[N-(4-nitrophenyl)sulfamoyl]-1-cyclohexene-1-carboxylate]",3.7
2,"CCOC(=O)C1=CCCCC1S(=O)(=O)Nc1ccc(Cl)cc1 (stereo not drawn) [Compound 30, ethyl 6-[N-(4-chlorophenyl)sulfamoyl]-1-cyclohexene-1-carboxylate]",0.54
3,"CCOC(=O)C1=CCCCC1S(=O)(=O)Nc1cccc(Cl)c1 (stereo not drawn) [Compound 37, ethyl 6-[N-(3-chlorophenyl)sulfamoyl]-1-cyclohexene-1-carboxylate]",0.13
4,"CCOC(=O)C1=CCCCC1S(=O)(=O)Nc1ccccc1CC (stereo not drawn) [Compound 39, ethyl 6-[N-(2-ethylphenyl)sulfamoyl]-1-cyclohexene-1-carboxylate]",0.32

# Same assay, conditions: RAW264.7 cells stimulated with LPS 5 ng/ml and interferon gamma 1 U/ml; nitrite ion in culture supernatant; Compounds 1 and 3: minimum and maximum of 7 and 9 tests; read-out: IC50 (μM), NO production inhibition
row,Compound,IC50 [µM]
1,"CCOC(=O)C1=CCCCC1S(=O)(=O)Nc1ccc(F)cc1F (stereo not drawn) [Compound 20, d-ethyl 6-[N-(2,4-difluorophenyl)sulfamoyl]-1-cyclohexene-1-carboxylate]",0.005
2,ethyl 7-[N-(2-chloro-4-fluorophenyl)sulfamoyl]-1-dycloheptene-1-carboxylate [Compound 65],0.32
